In patent US4789665A, “Anthracyclines and drugs containing them” (Laboratoires Hoechst S. A., priority 1985, dated 1988):
Converted amounts (≈) assume the structure as drawn.

These compounds were tested on leukemia L 1210 strain cells (assay: cell proliferation test (colony formation, procedure of HAMBURGER and SALMON), continuous exposure). Settings: Mus musculus, L1210, read-out: IC50 (continuous exposure).
Assay type: cell-based
Method: The experimental protocol was performed according to the procedure of HAMBURGER and SALMON on leukemia L 1210 strain cells. Some modifications were introduced in the procedure of HAMBURGER and SALMON, and in particular:
the conditioned medium was replaced by McCoy5A. The number of cells in a dish was reduced to 5×10^2 cells per dish on account of the high covering efficiency of leukemia L 1210. […]
In addition, parallel experiments were carried out with continuous incubation and with various concentrations of the test substance by mixing the latter with the upper layer before application.
The dishes were kept in an incubator with 5% CO2, 20% O2, at 95% relative humidity for 5 to 7 days at 37° C. After this period, the colonies having a diameter greater than 60 μm were counted with an inverted microscope.
The results were expressed as a percentage of the number of colonies formed from treated L 1210 relative to an untreated control. The coefficient of variation of repeated experiments was less than 15%.

Row | SMILES | IC50
1 | COc1cccc2c1C(=O)c1c(O)c3c(c(O)c1C2=O)C[C@@](O)(C(C)=O)C[C@@H]3O[C@H]1C[C@H](NCC#N)[C@H](O)[C@H](C)O1 [3'-N-(cyanomethyl)daunorubicin] | 0.0028 µg/mL (≈ 0.00494 µM)
2 | COCCN(CC#N)[C@H]1C[C@H](O[C@H]2C[C@](O)(C(C)=O)Cc3c(O)c4c(c(O)c32)C(=O)c2c(OC)cccc2C4=O)O[C@@H](C)[C@H]1O [3'-N-cyanomethyl-3'-N-(2-methoxyethyl)daunorubicin] | 0.09 µg/mL (≈ 0.144 µM)

Same assay, conditions: Mus musculus, L1210; L 1210 leukemia cells, continuous incubation, colonies >60 μm counted after 5 to 7 days at 37° C; read-out: IC50 (continuous exposure)

Row | SMILES | IC50
3 | COCCOCCN(CCOCCOC)[C@H]1C[C@H](O[C@H]2C[C@](O)(C(C)=O)Cc3c(O)c4c(c(O)c32)C(=O)c2c(OC)cccc2C4=O)O[C@@H](C)[C@H]1O [3'-N,N-bis[2-(2-methoxyethoxy)ethyl]daunorubicin] | 0.22 µg/mL (≈ 0.301 µM)
4 | COc1cccc2c1C(=O)c1c(O)c3c(c(O)c1C2=O)C[C@@](O)(C(=O)CO)C[C@@H]3O[C@H]1C[C@H](N)[C@H](O)[C@H](C)O1 [DOXORUBICIN, doxorubicin, reference compound] | 0.02 µg/mL (≈ 0.0368 µM)
5 | COc1cccc2c1C(=O)c1c(O)c3c(c(O)c1C2=O)C[C@@](O)(C(C)=O)C[C@@H]3O[C@H]1C[C@H](N)[C@H](O)[C@H](C)O1 [DAUNORUBICIN, daunorubicin, reference compound] | 0.02 µg/mL (≈ 0.0379 µM)

The next lines start with the values.

Row | IC50 | SMILES
6 | 0.28 µg/mL (≈ 0.437 µM) | CCN(CC)C(=O)CN[C@H]1C[C@H](O[C@H]2C[C@](O)(C(C)=O)Cc3c(O)c4c(c(O)c32)C(=O)c2c(OC)cccc2C4=O)O[C@@H](C)[C@H]1O [3'-N-[(N,N-diethylcarbamoyl)methyl]daunorubicin]
7 | 0.65 µg/mL (≈ 0.862 µM) | CCN(CC)C(=O)CN(CC(=O)N(CC)CC)[C@H]1C[C@H](O[C@H]2C[C@](O)(C(C)=O)Cc3c(O)c4c(c(O)c32)C(=O)c2c(OC)cccc2C4=O)O[C@@H](C)[C@H]1O [3'-N,N-bis[(N,N-diethylcarbamoyl)methyl]daunorubicin]
8 | 0.08 µg/mL (≈ 0.132 µM) | COc1cccc2c1C(=O)c1c(O)c3c(c(O)c1C2=O)C[C@@](O)(C(C)=O)C[C@@H]3O[C@H]1C[C@H](N(CC#N)CC#N)[C@H](O)[C@H](C)O1 [3'-N,N-bis(cyanomethyl)daunorubicin]
9 | 0.07 µg/mL (≈ 0.111 µM) | COCCOCCN[C@H]1C[C@H](O[C@H]2C[C@](O)(C(C)=O)Cc3c(O)c4c(c(O)c32)C(=O)c2c(OC)cccc2C4=O)O[C@@H](C)[C@H]1O [3'-N-[2-(2-methoxyethoxy)ethyl]daunorubicin]
10 | 0.24 µg/mL (≈ 0.4 µM) | COC(=O)CN[C@H]1C[C@H](O[C@H]2C[C@](O)(C(C)=O)Cc3c(O)c4c(c(O)c32)C(=O)c2c(OC)cccc2C4=O)O[C@@H](C)[C@H]1O [3'-N-(carbomethoxymethyl)daunorubicin]
11 | 0.01 µg/mL (≈ 0.0171 µM) | COCCN[C@H]1C[C@H](O[C@H]2C[C@](O)(C(C)=O)Cc3c(O)c4c(c(O)c32)C(=O)c2c(OC)cccc2C4=O)O[C@@H](C)[C@H]1O [3'-N-(2-methoxyethyl)daunorubicin]
